Reference: patent publication US20070225245A1, “Viral vector driven mutant bacterial cytosine deaminase gene and uses thereof” (priority 1998, published 2007)

Legend:
Panc2.03 xenografts = assay: Subcutaneous human pancreatic tumor xenograft, tumor growth; assay type: in vivo, athymic nude mice; conditions: PBS plus 5-FC
Experimental: Animals were injected i.t. with 1×10^7 TCID50 of AdbCD-D314A or 1×10^8 TCID50 of AdbCDwt on Days 0, 7, and 14. 5-FC was administered i.p. at 400 mg/kg qd×5/week for 3 weeks starting on Day 1. Data points represent the mean change in tumor surface area relative to Day 0 for each group of animals.
To compare anti-tumor effects of AdbCD-D314A and AdbCDwt mediated molecular chemotherapy on established solid tumors, 7×10^6 Panc2.03 pancreatic cancer cells were injected s.c. into female athymic nude mice. Treatment was started 11 days post-tumor cell injection at the time of established tumor growth (tumors were 6-8 mm in diameter), noted as Day 0. Animals were randomly divided into groups receiving different treatments: 1) AdbCDwt plus 5-FC; 2) AdbCD-D314A plus 5-FC; 3) AdbCD-D314A plus PBS; 4) PBS plus 5-FC. Mice were injected i.t. with 1×10^8 TCID50 per tumor AdbCDwt or with 1×10^7 TCID50 AdbCD-D314A on Days 0, 7, and 14. Three groups of mice (# 1, 2 and 4) received 5-FC i.p. at 400 mg/kg on Days 1 to 5, 8 to 12, and 15 to 19.

D54MG xenografts = assay: Subcutaneous human glioma xenograft model, tumor growth; assay type: in vivo, athymic nude mice
Experimental: (§1) Treatment was started at the time of established tumor growth (Day 0 equal to 14 days after tumor cell injection). Animals were infected i.t. with 1×10^8 TCID50 AdbCDwt or AdbCD-D314A on Days 0, 7, and 14, and then irradiated with 2 Gy on Days 4, 7 and 10. 5-FC was injected i.p. at 500 mg/kg on Days 0 to 4, 7 to 11, and 14 to 18. Data points represent the mean change in tumor surface area relative to Day 0 for each group of animals.
as §1, with “to 17” for “to 14”, “TCID50” for “TCID50 AdbCDwt or”, “and” for “and then”, “with 5” for “with 2”
To assess anti-tumor effects on established solid tumors, D54MG glioma cells (2×10^7) were injected s.c. into female athymic nude mice. Treatment was started 14 days post-tumor cell injection at the time of established tumor growth (tumors were 6-8 mm in diameter), noted as Day 0. […] Tumor size was monitored twice a week with Vernier calipers. Tumor surface area (length×width in mm^2) was calculated for each group of 10 mice and plotted as a percentage change over time relative to the mean size on Day 0 for each group.

BXPC-3 = assay: 5-FU cytotoxicity IC50; assay type: cell-based; conditions: Homo sapiens
Experimental: (§2) A two factor analysis of variance with interaction was used to assess the effects of AdCMVLuc and AdCMVLuc+Fab-FGF2 MOI on RLU for each of the cell types individually. Due to the nonconstant variability, the logarithm of RLU was analyzed. This transformation stabilized the variability and normalized the errors. A three-factor with interaction analysis of variance was used to assess the effects of MOI, virus type and day on the number of cells per well. Due to the nonconstant variability, the logarithm of cells per well was analyzed. This transformation stabilized the variability and normalized the errors. Global comparisons were done at the 5% significance level and all pairwise comparisons were done at the 1% significance level. A nonlinear model was used to calculate the 5-FU IC50 for each cell type individually. The nonlinear model is given by: number of cells=trough+(peak-trough)/(1+dose/IC50). To assess the correlation of the number of cells per well with 5-FU production, a simple linear regression was done modeling the logarithm of cells per well as a function of percent 5-FU production for each cell and virus type combination individually. Kaplan-Meier estimates on the difference in time to tumor size doubling was used to assess the difference in tumor growth in animals treated with AdCMVCD or AdCMVCD+Fab′-FGF2 plus 5-FC and radiation.
(§3) To determine the relative sensitivity of several hepatobiliary cell lines to 5-FU, the concentration of 5-FU which inhibited cellular growth by 50% (IC50) was determined. Characterization of this information is particularly relevant to the CD/5-FC toxin gene prodrug system, as 5-FU is the toxic metabolic product of cytosine deaminase enzymatic conversion of 5-FC.

ASPC-1 = assay: 5-FU cytotoxicity IC50; assay type: cell-based; conditions: Homo sapiens, ASPC1
Experimental: as §2, §3

CFPAC-1 = assay: 5-FU cytotoxicity IC50; assay type: cell-based; conditions: Homo sapiens
Experimental: as §2, §3

SK-ChA-1 = assay: 5-FU cytotoxicity IC50; assay type: cell-based; conditions: Homo sapiens
Experimental: as §2, §3

| SMILES | mean time to tumor doubling (Panc2.03 xenografts) | mean time to tumor doubling (D54MG xenografts; 5-FC alone) | mean time to tumor doubling (D54MG xenografts; 5-FC plus radiation (3×2 Gy)) | IC50 (BXPC-3) | IC50 (ASPC-1) | IC50 (CFPAC-1) | IC50 (SK-ChA-1) |
| --- | --- | --- | --- | --- | --- | --- | --- |
| Nc1nc(=O)[nH]cc1F [5-FC, 5-fluorocytosine] | 22 days | 13 days | 15 days |  |  |  |  |
| O=c1[nH]cc(F)c(=O)[nH]1 [5-FU, 5-fluorouracil] |  |  |  | 0.134 mg/L | 0.635 mg/L | 0.089 mg/L | 0.115 mg/L |
